Assays:
[1] = molecular target: T1, Acetylcholinesterase (Mus musculus, UniProt P21836); assay: Inhibitory activity against mouse brain Acetylcholinesterase
T1 sequence (P21836 whole entry): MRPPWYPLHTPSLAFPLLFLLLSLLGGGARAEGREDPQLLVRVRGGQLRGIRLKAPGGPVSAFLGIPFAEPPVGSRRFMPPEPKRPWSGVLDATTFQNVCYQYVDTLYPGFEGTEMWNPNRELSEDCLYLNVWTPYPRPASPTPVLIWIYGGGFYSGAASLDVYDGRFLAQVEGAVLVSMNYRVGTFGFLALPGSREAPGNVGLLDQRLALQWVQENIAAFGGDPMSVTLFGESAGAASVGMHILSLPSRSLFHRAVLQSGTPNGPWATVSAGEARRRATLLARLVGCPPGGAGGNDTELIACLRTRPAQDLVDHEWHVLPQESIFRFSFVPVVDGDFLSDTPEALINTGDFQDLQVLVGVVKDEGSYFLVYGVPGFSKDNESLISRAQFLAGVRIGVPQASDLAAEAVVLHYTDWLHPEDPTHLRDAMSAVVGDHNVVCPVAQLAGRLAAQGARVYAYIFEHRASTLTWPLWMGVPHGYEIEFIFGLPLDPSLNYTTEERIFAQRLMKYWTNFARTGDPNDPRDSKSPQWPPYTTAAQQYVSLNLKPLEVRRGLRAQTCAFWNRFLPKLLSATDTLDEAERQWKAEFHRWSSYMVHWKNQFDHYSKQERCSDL

[2] = molecular target: T2, Acetylcholinesterase (Mus musculus) (UniProt P21836); assay: Reversibility of Acetylcholinesterase enzyme inhibition by compound (0.27 uM) after dialysis
T2 sequence (whole entry): T1 sequence (P21836 whole entry)

[3] = molecular target: T2, Acetylcholinesterase (Mus musculus); assay: Reversibility of Acetylcholinesterase enzyme inhibition by compound (0.27 uM) before dialysis
[4] = molecular target: T2, Acetylcholinesterase (Mus musculus); assay: Reversibility of Acetylcholinesterase enzyme inhibition by compound (0.91 uM) after dialysis
[5] = molecular target: T2, Acetylcholinesterase (Mus musculus); assay: Reversibility of Acetylcholinesterase enzyme inhibition by compound (0.91 uM) before dialysis
[6] = molecular target: T2, Acetylcholinesterase (Mus musculus); assay: Reversibility of Acetylcholinesterase enzyme inhibition by compound (91 uM) after dialysis
[7] = molecular target: T2, Acetylcholinesterase (Mus musculus); assay: Reversibility of Acetylcholinesterase enzyme inhibition by compound (91 uM) before dialysis
[8] = molecular target: Butyrylcholinesterase (Rattus norvegicus, UniProt Q9JKC1); assay: Inhibitory activity against rat butyrylcholinesterase enzyme (BuChE)
Butyrylcholinesterase, sequence (Q9JKC1 whole entry): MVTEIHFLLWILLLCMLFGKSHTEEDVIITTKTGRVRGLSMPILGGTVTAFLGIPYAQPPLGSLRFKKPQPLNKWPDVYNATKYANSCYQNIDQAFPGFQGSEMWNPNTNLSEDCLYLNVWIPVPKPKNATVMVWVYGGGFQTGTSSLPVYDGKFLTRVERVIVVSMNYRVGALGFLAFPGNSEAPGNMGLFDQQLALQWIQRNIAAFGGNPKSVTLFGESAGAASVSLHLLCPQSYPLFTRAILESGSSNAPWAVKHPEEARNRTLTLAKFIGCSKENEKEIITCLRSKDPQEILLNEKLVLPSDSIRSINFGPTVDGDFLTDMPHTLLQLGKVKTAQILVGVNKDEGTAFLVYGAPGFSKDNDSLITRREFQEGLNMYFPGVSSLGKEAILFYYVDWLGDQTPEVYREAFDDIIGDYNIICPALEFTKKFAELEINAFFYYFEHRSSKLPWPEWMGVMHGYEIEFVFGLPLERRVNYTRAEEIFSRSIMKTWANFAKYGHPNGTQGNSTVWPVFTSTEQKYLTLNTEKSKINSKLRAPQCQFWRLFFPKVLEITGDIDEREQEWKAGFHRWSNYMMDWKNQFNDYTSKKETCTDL

Row | Structure (SMILES) | IC50 [1] | further results
1 | O=C(NCCC1CCN(Cc2ccccc2)CC1)c1cccc([N+](=O)[O-])c1 | 230 nM | –
2 | O=C(NCCC1CCN(Cc2ccccc2)CC1)c1ccccn1 | 800 nM | –
3 | O=C(NCCC1CCN(Cc2ccccc2)CC1)C1CCCCC1 | 1600 nM | –
4 | CC(=O)c1ccc(C(=O)NCCC2CCN(Cc3ccccc3)CC2)cc1 | 51 nM | –
5 | Cc1ccc(C(=O)NCCC2CCN(Cc3ccccc3)CC2)cc1 | 180 nM | –
6 | O=C(NCCC1CCN(Cc2ccccc2)CC1)c1ccc(S(=O)(=O)Cc2ccccc2)cc1 | 29 nM | –
7 | O=C(CCCC1CCN(Cc2ccccc2)CC1)c1ccccc1 | 530 nM | –
8 | O=C(c1ccc(S(=O)(=O)Cc2ccccc2)cc1)N(CCC1CCN(Cc2ccccc2)CC1)c1ccccc1 | 0.6 nM | –
9 | O=Cc1ccc(C(=O)NCCC2CCN(Cc3ccccc3)CC2)cc1 | 120 nM | –
10 | O=C(c1ccccc1)N(CCC1CCN(Cc2ccccc2)CC1)c1ccccc1 | 35 nM | –
11 | COc1ccc(C(=O)NCCC2CCN(Cc3ccccc3)CC2)cc1 | 88 nM | –
12 | O=C(NCCC1CCN(Cc2ccccc2)CC1)c1ccccc1[N+](=O)[O-] | 880 nM | –
13 | O=C(NCCC1CCN(Cc2ccccc2)CC1)c1ccncc1 | 39 nM | –
14 | O=C(NCCC1CCN(Cc2ccccc2)CC1)c1ccc(Cl)cc1 | 180 nM | –
15 | O=C(NCCC1CCN(Cc2ccccc2)CC1)c1cccnc1 | 69 nM | –
16 | O=C(NCCC1CCN(Cc2ccccc2)CC1)c1ccc(F)cc1 | 85 nM | –
17 | CCN(CCC1CCN(Cc2ccccc2)CC1)C(=O)c1ccccc1 | 130 nM | –
18 | Cc1ccccc1C(=O)NCCC1CCN(Cc2ccccc2)CC1 | 1000 nM | –
19 | Cc1cccc(C(=O)NCCC2CCN(Cc3ccccc3)CC2)c1 | 470 nM | –
20 | O=C(c1ccccc1)N(CCC1CCN(Cc2ccccc2)CC1)Cc1ccccc1 | 940 nM | –
21 | CCN(CCC1CCN(Cc2ccccc2)CC1)C(=O)c1ccc(S(=O)(=O)Cc2ccccc2)cc1 | 0.3 nM | –
22 | CN(CCC1CCN(Cc2ccccc2)CC1)C(=O)c1ccc(S(=O)(=O)Cc2ccccc2)cc1 | – | Reversibility [2]: 17.7; Reversibility [3]: 9.1; Reversibility [4]: 17.8; Reversibility [5]: 5.42; Reversibility [6]: 16.5; Reversibility [7]: 2.59; IC50 [8]: 10100 nM
23 | c1ccc(CNCCC2CCN(Cc3ccccc3)CC2)cc1 | 46000 nM | –
24 | O=C(NCCC1CCN(Cc2ccccc2)CC1)c1cc[n+]([O-])cc1 | 155 nM | –
